According to patent US9403877B2, “Peptide agents for cancer therapy” (INTER-K PTY LIMITED, priority 2012, dated 2016):
“Also recorded” adds a separate entry of the source. Where no end group is shown, it is not given here. The star is where a group is joined. FITC = O=C1OC2(c3ccc(O)cc3Oc3cc(O)ccc32)c2ccc(NC(=S)*)cc21

Key:
HT29 cells = assay: Uptake of FITC-labelled peptide by confocal microscopy; assay type: cell-based, human; conditions: serum-free culture, after 24 hours, compared to FITC alone
Experimental: The ability of 10 Ala to cross the plasma membrane of HT29 cells was assessed by means of confocal microscopy of cells exposed to 10Ala conjugated to fluorosceine isothiocyanate (FITC) under serum-free culture conditions. The peptide used in this study comprised the sequence KRAKAKAAAAR (SEQ ID No. 25) (identified as FITC-K10(4)Ala) with an extra lysine residue at the amino terminus (to which the FITC label is attached). […] A microphotograph showing localization of the FITC-labelled peptide to the cytoplasm of cells compared to cells treated with FITC alone is shown in FIG. 9.

HT29 colon cancer cells [1] = assay: In vitro growth inhibition MTT assay, HT29; assay type: cell-based, human; conditions: for Inhibition of HT29 cell growth/proliferation (MTT), in words: serum-free medium, 72 hours, peptide 50 nM-100 μM, compared with RSKAKNPLYR or 10Ala
Experimental: (§1) The human colon cancer cell line HT29, ovarian cancer cell line A2780, breast cancer cell lines MCF-7 and MDA468, and a prostate cancer cell line (DU145) were used for in vitro studies. The cell lines were cultured at 37° C., under air containing 5% CO2 and passaged regularly for optimal growth. Cells were maintained in DMEM medium containing 10% fetal bovine serum. All culture medium preparations were further supplemented with penicillin/streptomycin (100 μg/ml), and
(§2) 1.2 In Vitro Growth Inhibition MTT Assay
Cells in logarithmic growth were transferred to 96-well plates in 100 μl of serum-containing medium at a density of 4000 cells per well. […] […] Growth-inhibitory effects were evaluated by MTT (3-[4,5-dimethylthiazol-2-yl]2,5-diphenyl-tetrazolium bromide) cell growth assay and absorbance was read at 540 nm. Growth of control cells was exponential during the whole incubation period. Mean surviving fractions±SEM values (minimum of 3 separate experiments) were determined for each peptide/cisplatin concentration.

colon cancer cells = conditions: PCT/AU2010/000203; cited from earlier work
[2] = test system: breast (MCF-7) cancer cell line; assay: In vitro growth inhibition MTT assay, MCF-7, serum-free; assay type: cell-based, human; conditions: 72 hours
Experimental: as §1, §2
(§3) Cells in logarithmic growth were transferred to 96-well plates in 100 μl of serum-containing medium at a density of 4000 cells per well. After 24 hours the previously added serum-containing medium was removed and 200 μl serum free medium (SFM) with or without peptide was added to each of triplicate wells. Drug exposure experiments were carried out on cell lines using varying concentrations of peptides (50 nM-100 μM) and cells were exposed to peptides for 72 hours in serum-free culture medium. Growth-inhibitory effects were evaluated by MTT (3-[4,5-dimethylthiazol-2-yl]2,5-diphenyl-tetrazolium bromide) cell growth assay and absorbance was read at 540 nm. Growth of control cells was exponential during the whole incubation period. Mean surviving fractions±SEM values (minimum of 3 separate experiments) were determined for each peptide/cisplatin concentration.

[3] = test system: prostate (DU145) cancer cell line; assay: In vitro growth inhibition MTT assay, DU145, serum-free; assay type: cell-based, human; conditions: 72 hours
Experimental: as §1, §2, §3

[4] = test system: ovarian (A2780) cancer cell line; assay: In vitro growth inhibition MTT assay, A2780, serum-free; assay type: cell-based, human; conditions: 72 hours
Experimental: as §1, §2, §3

[5] = test system: MDA468 breast cancer cells; assay: Modified MTT assay, MDA468, 5% serum, 48 hours; assay type: cell-based, human; conditions: for Growth inhibition of MDA468 breast cancer cells: concentrations of 0.5 μM or greater
Experimental: as §3
(§4) The growth inhibitory activity of various concentrations of the 10 RVK peptide (RVKVKVVVVR) (SEQ ID No. 24) with an 8 mer polyarginine sequence coupled to its C-terminal end (i.e., RVKVKVVVVRRRRRRRRR (SEQ ID No. 26), referred to herein as 10 RVK Arg) on MDA468 breast cancer cells was assessed by a modified form of the MTT assay described in Example 1.2 in which 3000 cells per well were cultured for 48 hours in culture medium containing 5% serum. For the negative control, an 8 mer polyargine peptide (8 Arg) was used. The results shown in FIG. 10 are the average of 3 replicate wells for each dosage.
(§5) The growth inhibitory activity of various concentrations of the 10 RVK Arg peptide on MDA468 breast cancer and DU145 prostate cancer cells was assessed by MTT assay involving incubating the cells in 5% serum containing medium for 48 hours as described in Example 2. As a comparison, inhibition of the growth of the cells by the 10 RVK peptide with a 7 mer polyarginine sequence coupled to its C-terminal end (i.e., RVKVKVVVVRRRRRRRR (SEQ ID No. 27), referred to herein as 10 RVK 7 Arg) and the 10 RVK peptide with an 8 mer polyargine sequence coupled to its N-terminal end (i.e., RRRRRRRRRVKVKVVVVR (SEQ ID No. 28), referred to herein as Arg 10 RVK) were also assessed. The results for inhibition of the breast cancer cells are shown in FIG. 11 while the results for treatment of the prostate cancer cells are shown in FIG. 12.

[6] = test system: DU145 prostate cancer cells; assay: Modified MTT assay, DU145, 5% serum, 48 hours; assay type: cell-based, human; conditions: for Growth inhibition of DU145 prostate cancer cells: 5% serum, 48 hours, concentrations of 0.5 μM or greater
Experimental: as §3, §4, §5

HT29 colon cancer cells [7] = conditions: in vitro in the presence of serum, Agrez et al., 2011; cited from earlier work

With “FITC-KRAKAKAAAAR ({FITC}-KRAKAKAAAAR) [FITC-K10(4)Ala]” the “Internalization / localization of FITC-labelled peptide in cells” value (HT29 cells) was “cytoplasmic localization of peptide”.
For “KARARAAAAK (10Ala peptide in which the positions of one or both arginine and lysine residues have been inverted)”, the “Inhibition of HT29 cell growth/proliferation (MTT), in words” value (HT29 colon cancer cells [1]) was “significantly reduced the ability of the peptides to inhibit cell growth”.
For “KEKLKNPLFK (10-mer peptide from B2 integrin cytoplasmic domains) [10 mer peptide derived from the β2 integrin cytoplasmic domain]”, the “Inhibition of proliferation of colon cancer cells in vitro (previously reported)” value (from here on “Inhibition … (previously reported)”) (colon cancer cells) is given as “effective at inhibiting proliferation”.
In the case of “RAAKAARAAK (Scrambled peptide with Alanine in the place of all non-charged residues in peptide of sequence 2.) [scrambled alanine-substituted peptide]”, the “Inhibition of HT29 cell growth/proliferation (MTT), in words” value (HT29 colon cancer cells [1]) is reported as “ineffective”.
In the case of RAKAK (shorter variant of 10Ala), the “Inhibition of HT29 cell growth/proliferation (MTT), in words” value (HT29 colon cancer cells [1]) is reported as “minimal effect”.
For “RAKAKAAAAAR (variant peptide of 10Ala having 5 alanine residues between the lysine and the C-terminal arginine)”, the “Inhibition of HT29 cell growth/proliferation (MTT), in words” value (HT29 colon cancer cells [1]) was “significantly less effective at inhibiting growth”.
With RAKAKAAAAR (B6 derived peptide) the “Inhibition of MCF-7 cell growth” value [2] was “equally effective”, the “Inhibition of DU145 cell growth” value [3] was “equally effective” and the “Growth inhibitory effect in serum-containing medium” value (HT29 colon cancer cells [1]; serum-containing medium, data not shown) was “adversely affected”. The “Inhibition of HT29 cell growth/proliferation (MTT), in words” value (HT29 colon cancer cells [1]) was “ability of both peptides to inhibit cell growth was similar”, the “Inhibition of HT29 cell growth/proliferation (MTT), in words” value (HT29 colon cancer cells [1]; listed as 10Ala) was “significantly more effective at inhibiting cell proliferation” and the “Inhibition of A2780 cell growth” value [4] was “equally effective”.
For RAKAKAAAR (short variant of 10Ala), the “Inhibition of HT29 cell growth/proliferation (MTT), in words” value (HT29 colon cancer cells [1]) was “minimal effect; also recorded: significantly less effective at inhibiting growth”.
With “RAKARAAAAK (10Ala peptide wherein the position of one or both arginine and lysine residues have been inverted)” the “Inhibition of HT29 cell growth/proliferation (MTT), in words” value (HT29 colon cancer cells [1]) was “significantly reduced the ability of the peptides to inhibit cell growth”.
In the case of “RARAKNPLYK (10 mer peptide from B3 integrin cytoplasmic domain) [10 mer peptide derived from the β3 integrin cytoplasmic domain]”, the “Inhibition … (previously reported)” value (colon cancer cells) is listed as “effective at inhibiting proliferation”.
In the case of “RKKR (Charged residues for growth inhibitory effect)”, the “Inhibition of HT29 cell growth/proliferation (MTT), in words” value (HT29 colon cancer cells [1]) is reported as “not sufficient to inhibit cancer cell proliferation in vitro to the same degree”.
For “RKRK (A scrambled version of the charged residues RKKR)”, the “Inhibition of HT29 cell growth/proliferation (MTT), in words” value (HT29 colon cancer cells [1]) was “significantly less effective at inhibiting growth of the cells”.
With “RRRRRRRRRVKVKVVVVR (10 RVK peptide with an 8 mer polyargine sequence coupled ot its N-terminal end) [Arg 10 RVK]” the “Growth inhibition of MDA468 breast cancer cells” value ([5]; 5% serum, 48 hours) was “markedly inhibited growth” and the “Growth inhibition of DU145 prostate cancer cells” value [6] was “markedly inhibited growth”.
For “RSKAKNALYR (short variant of sequence 2, scrambled)”, the “Inhibition of HT29 cell growth/proliferation (MTT), in words” value (HT29 colon cancer cells [1]) was “not seen”.
In the case of “RSKAKNPLAR (A short variant peptide of sequence 2)”, the “Inhibition of HT29 cell growth/proliferation (MTT), in words” value (HT29 colon cancer cells [1]) is reported as “not seen”.
For “RSKAKNPLYR (Non naturally occurring peptide derived from the B6 binding sequence)”, the “Growth inhibitory effect in the presence of serum (previously shown)” value (HT29 colon cancer cells [7]) is listed as “adversely affected”.
With “RSKAKR (SHORT VARIANT OF THE PEPTIDE FROM SEQUENCE 2)” the “Inhibition of HT29 cell growth/proliferation (MTT), in words” value (HT29 colon cancer cells [1]) was “failed to inhibit proliferation”.
In the case of “RSRARNPLYR (10 mer peptide from B5 integrin cytoplasmic domain) [10 mer peptide derived from the β5 integrin cytoplasmic domain]”, the “Inhibition … (previously reported)” value (colon cancer cells) is listed as “effective at inhibiting proliferation”.
With “RVKVKVVVVRRRRRRRR (10RVK peptide with a 7 mer polyarginine sequence coupled to its C-terminal end) [10 RVK 7 Arg]” the “Growth inhibition of MDA468 breast cancer cells” value ([5]; 5% serum, 48 hours) was “markedly inhibited growth” and the “Growth inhibition of DU145 prostate cancer cells” value [6] was “markedly inhibited growth”.
With “RVKVKVVVVRRRRRRRRR (8 mer polyarginine sequence couple to the C-terminal end of 10 RVK peptide) [10 RVK Arg]” the “Growth inhibitory activity on MDA468 compared to 10 RVK with penetratin coupled to its N-terminal” value ([5]; 5 μM to 10 μM, results not shown) was “enhanced cell growth inhibitory activity”, the “Growth inhibition of MDA468 cells” value ([5]; 5% serum, 48 hours, concentration 5 μM to 50 μM) was “totally inhibited growth” and the “Growth inhibition of MDA468 breast cancer cells” value ([5]; 5% serum, 48 hours) was “markedly inhibited growth”. For the same substance, the “Growth inhibitory activity on DU145 compared to 10 RVK with penetratin coupled to its N-terminal” value ([6]; 10 μM to 50 μM, results not shown) was “enhanced cell growth inhibitory activity” and the “Growth inhibition of DU145 prostate cancer cells” value [6] was “markedly inhibited growth”.
